Assay results published in PMC10922308 (Cell chemical biology, 2023).

How the values were obtained:
Assay type in all cases: cell-based
PIM3 = PIM3 (Homo sapiens, UniProt Q86V86); experiment: PROTAC degradation immunoblot in PC3 cells
PIM1 [1] = biological target: T1, PIM1 (Homo sapiens, UniProt P11309)
PIM2 = PIM2 (Homo sapiens, UniProt Q9P1W9); experiment: PROTAC degradation immunoblot in PC3 cells
PIM1 [2] = biological target: T1, PIM1; experiment: PROTAC degradation immunoblot in PC3-dox-PIM1 cells
PIM1 [3] = biological target: T1, PIM1; experiment: as above; remark: listed apart in the source

T1 sequence (P11309 whole entry): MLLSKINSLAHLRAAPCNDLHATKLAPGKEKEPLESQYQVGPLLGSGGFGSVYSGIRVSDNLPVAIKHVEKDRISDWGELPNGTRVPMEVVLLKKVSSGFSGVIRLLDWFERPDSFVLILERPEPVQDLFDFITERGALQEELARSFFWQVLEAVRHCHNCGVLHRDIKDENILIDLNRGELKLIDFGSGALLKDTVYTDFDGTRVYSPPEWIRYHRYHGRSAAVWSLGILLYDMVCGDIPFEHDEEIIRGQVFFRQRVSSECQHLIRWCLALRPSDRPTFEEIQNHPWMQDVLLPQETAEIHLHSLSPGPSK
T1 sequence (P40337 whole entry partner): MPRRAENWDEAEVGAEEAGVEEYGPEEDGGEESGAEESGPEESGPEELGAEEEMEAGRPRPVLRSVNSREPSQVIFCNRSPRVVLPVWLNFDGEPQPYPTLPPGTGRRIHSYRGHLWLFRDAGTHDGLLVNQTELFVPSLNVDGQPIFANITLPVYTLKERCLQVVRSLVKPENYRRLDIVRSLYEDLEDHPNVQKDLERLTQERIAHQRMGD
Chain of PIM2 (Q9P1W9 whole entry): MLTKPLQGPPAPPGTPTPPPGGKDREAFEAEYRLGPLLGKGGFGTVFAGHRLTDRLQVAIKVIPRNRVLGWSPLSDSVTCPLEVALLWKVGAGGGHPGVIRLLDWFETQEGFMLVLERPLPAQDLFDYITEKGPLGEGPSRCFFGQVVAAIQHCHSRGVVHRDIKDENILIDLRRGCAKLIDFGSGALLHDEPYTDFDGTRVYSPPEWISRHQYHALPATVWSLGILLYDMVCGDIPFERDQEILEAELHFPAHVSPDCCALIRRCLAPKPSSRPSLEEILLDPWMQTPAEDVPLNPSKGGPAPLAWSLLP
Chain of PIM2 (P40337 whole entry partner): as the sequence (P40337 whole entry partner) above
Chain of PIM3 (P40337 whole entry partner): as the sequence (P40337 whole entry partner) above

Q: Which “PROTAC degradation immunoblot in PC3 cells” value (PIM3) does the source give for `Cc1ncsc1-c1ccc([C@H](C)NC(=O)[C@@H]2C[C@@H](O)CN2C(=O)[C@@H](NC(=O)CCCCCCC(=O)N2CCC(CNc3ccc4ncc(-c5cccc(OC(F)(F)F)c5)n4n3)CC2)C(C)(C)C)cc1` [SGI-1776-VHL-02, (2S,4R)-1-((S)-3,3-dimethyl-2-(8-oxo-8-(4-(((3-(3-(trifluoromethoxy)phenyl)imidazo[1,2-b]pyridazin-6-yl)amino)methyl)piperidin-1-yl)octanamido)butanoyl)-4-hydroxy-N-((S)-1-(4-(4-methylthiazol-5-yl)phenyl)ethyl)pyrrolidine-2-carboxamide] here?
A: 1.5 µM

Q: And the “PROTAC degradation immunoblot in PC3 cells, with VH298, MG-132, MLN4924, cis-epi” value (PIM1 [1])?
A: 0.75 µM

Q: And the “PROTAC degradation immunoblot in PC3 cells” value (PIM2)?
A: 3.75 µM

Q: Which “PROTAC degradation immunoblot in PC3 cells, with VH298, MG-132, MLN4924, cis-epi” value (PIM1 [1]) does the source give for `Cc1ncsc1-c1ccc([C@H](C)NC(=O)[C@@H]2C[C@@H](O)CN2C(=O)[C@@H](NC(=O)CCCCCCC(=O)N[C@@H]2CC(c3ccncc3NC(=O)c3ccc(F)c(-c4c(F)cccc4F)n3)C[C@H](C)C2)C(C)(C)C)cc1` (stereo partly drawn) [PIM447-VHL-01, N^1-((1S,5S)-3-(3-(6-(2,6-difluorophenyl)-5-fluoropicolinamido)pyridin-4-yl)-5-methylcyclohexyl)-N^8-((S)-1-((2S,4R)-4-hydroxy-2-(((S)-1-(4-(4-methylthiazol-5-yl)phenyl)ethyl)carbamoyl)pyrrolidin-1-yl)-3,3-dimethyl-1-oxobutan-2-yl)octanediamide] here?
A: 0.75 µM

Q: `Cc1ncsc1-c1ccc([C@H](C)NC(=O)[C@@H]2C[C@@H](O)CN2C(=O)[C@@H](NC(=O)CCCCCCC(=O)N[C@H]2CCCN(c3c(/C=C4\SC(=O)NC4=O)cccc3-c3ccccc3)C2)C(C)(C)C)cc1` [AZD1208-VHL-01, N^1-((S)-1-(3-((Z)-(2,4-dioxothiazolidin-5-ylidene)methyl)-[1,1’-biphenyl]-2-yl)piperidin-3-yl)-N^8-((S)-1-((2S,4R)-4-hydroxy-2-(((S)-1-(4-(4-methylthiazol-5-yl)phenyl)ethyl)carbamoyl)pyrrolidin-1-yl)-3,3-dimethyl-1-oxobutan-2-yl)octanediamide] was tested. Which “PROTAC degradation immunoblot in PC3-dox-PIM1 cells” value (PIM1 [2]) did it give?
A: 6.25 µM

Q: With `Cc1ncsc1-c1ccc([C@H](C)NC(=O)[C@@H]2C[C@@H](O)CN2C(=O)[C@@H](NC(=O)CCOCCOCCN2CCC(CNc3ccc4ncc(-c5cccc(OC(F)(F)F)c5)n4n3)CC2)C(C)(C)C)cc1` [SGI-1776-VHL-01, (2S,4R)-1-((S)-3,3-dimethyl-2-(3-(2-(2-(4-(((3-(3-(trifluoromethoxy)phenyl)imidazo[1,2-b]pyridazin-6-yl)amino)methyl)piperidin-1-yl)ethoxy)ethoxy)propanamido)butanoyl)-4-hydroxy-N-((S)-1-(4-(4-methylthiazol-5-yl)phenyl)ethyl)pyrrolidine-2-carboxamide] as the compound, how does the “PROTAC degradation immunoblot in PC3-dox-PIM1 cells (hook effect seen)” value (PIM1 [3]) read?
A: 0.75 µM
